Laboratory results taken from patent US11091442B2, “Fluorosulfonyl-containing compound, intermediate thereof, preparation method therefor and use thereof” (SHANGHAI INSTITUTE OF ORGANIC CHEMISTRY, CHINESE ACADEMY OF …, priority 2017, dated 2021).
Several values for one entry are separate records, joined by “and”; a condition that tells them apart may be missing. Equal entries are not always repeated.

Experiments:
[1] = Thermal stability on a melting point meter; assay type: physicochemical; details: temperature set at 129-240° C., heating gradient 1.0° C./min
Procedure: This embodiment studies the melting range and thermal stability of 1-(fluorosulfonyl)-2,3-dimethyl-1H-imidazolium trifluoromethanesulfonate
Experimental method: On a melting point meter, the temperature was set at 30-70° C. and the heating gradient at 0.5° C./min, the melting range of the substance of the embodiment was measured to be 62.1-64.2° C.: the temperature was set at 129-240° C. and the heating gradient at 1.0° C./min, the substance slowly bubbled at 135.2° C., and then turned from colorless to pale yellow at 176.5° C., turned to yellow at 185.6° C., turned to dark yellow at 189.9° C., and finally turned to black at 199.4° C.

[2] = Stability in deionized water, 19F-NMR tracking of the S-F signal; assay type: physicochemical; details: for S-F signal of the solution: deionized water, room temperature
Procedure: This embodiment studies the stability of 1-(fluorosulfonyl)-2,3-dimethyl-1H-imidazolium trifluoromethanesulfonate in deionized water
The experimental method: 1-(fluorosulfonyl)-2,3-dimethyl-1H-imidazolium trifluoromethanesulfonate ([…], 0.1 mmol) was dissolved in deionized water (1 mL) at room temperature to prepare a solution, and the pH value of the obtained solution was measured to be pH=1, ^19F-NMR tracked the change of the S—F signal of the solution, and the results are shown in Table 3.

[3] = Stability in different humidity environments (sealed plastic bottles, 231 days of observation and testing); assay type: physicochemical; details: after 231 days
Procedure: This embodiment studies the stability of 1-(fluorosulfonyl)-2,3-dimethyl-1H-imidazolium trifluoromethanesulfonate in different humidity environments.
Experimental method: 1-(fluorosulfonyl)-2,3-dimethyl-1H-imidazolium trifluoromethanesulfonate was sampled (4.521 g, 4.298 g, 4.273 g) and placed into three plastic bottles (20 mL), which were then sealed with parafilm membrane. The three plastic bottles were placed on an experimental table (22° C.), in a refrigerator (4° C.) or in a dryer (22° C.).

Compound	melting point	also measured
Cc1ccc(C2CCCN2S(=O)(=O)F)cc1 (centres unmarked)	53 to 57 °C	
O=S(=O)(F)N1CCC(Cc2ccccc2)CC1	54 to 58 °C and 58 to 61 °C and 57 to 61 °C	
O=S(=O)(F)N1CCC(c2ccccc2)CC1	83 to 84 °C	
O=C(NC1CCN(S(=O)(=O)F)CC1)c1ccccc1	205 to 207 °C	
COc1cc(C(=O)NC2CCCN(S(=O)(=O)F)C2)cc(OC)c1OC (centres unmarked)	184 to 186 °C	
O=S(=O)(F)N1CCN(S(=O)(=O)F)CC1	246 to 248 °C	
CC(C)c1n(S(=O)(=O)F)cc[n+]1C.O=S(=O)([O-])C(F)(F)F	77 to 80 °C	
O=S(=O)(F)NCCc1ccc(O)cc1	90 to 92 °C	
CC(C)(C)OC(=O)[C@H](NS(=O)(=O)F)c1ccccc1	81 to 84 °C	
O=S(=O)(F)N[C@@H]1CCC[C@H]1OCc1ccccc1	76 to 78 °C	
CN1CN(S(=O)(=O)F)c2ccccc21.O=S(=O)(O)C(F)(F)F	121 to 125 °C	
O=S(=O)(F)c1ccc(-c2ccc(S(=O)(=O)F)cc2)cc1	95.3 to 96.6 °C	
COc1cc(/C=C/c2ccc(OS(=O)(=O)F)cc2)cc(OC)c1	80.1 to 81.1 °C	
O=C(/C=C/c1ccc(S(=O)(=O)F)cc1)c1ccccc1	92.8 to 94.2 °C	
CC(=O)Nc1ccc(OS(=O)(=O)F)cc1	150.3 to 152 °C	
CC(=O)c1c(OS(=O)(=O)F)ccc2c(C)cc(=O)oc12	163.8 to 165.2 °C	
O=c1ccc2cc(OS(=O)(=O)F)ccc2o1	85.3 to 87.9 °C	
Cc1ccc2c(Cl)cc(Cl)c(OS(=O)(=O)F)c2n1	64.6 to 66.2 °C	
O=[N+]([O-])c1ccc(OS(=O)(=O)F)c2ncccc12	86.9 to 87.9 °C	
COc1cc(C=O)ccc1OS(=O)(=O)F	50.8 to 51.8 °C	
Cc1n(S(=O)(=O)F)cc[n+]1C.O=S(=O)([O-])C(F)(F)F [Compound 4, 1-(fluorosulfonyl)-2,3-dimethyl-1H-imidazolium trifluoromethanesulfonate]	58 to 60 °C	temperature at which the substance slowly bubbled [1]: 135.2 °C; temperature at which the substance turned from colorless to pale yellow [1]: 176.5 °C; temperature at which the substance turned to black [1]: 199.4 °C; temperature at which the substance turned to dark yellow [1]: 189.9 °C; temperature at which the substance turned to yellow [1]: 185.6 °C; pH value of the obtained solution ([2]; 36 mg, 0.1 mmol dissolved in deionized water (1 mL) at room temperature): 1; S-F signal of the solution ([2]; standing time 12 min): 0.77; S-F signal of the solution ([2]; standing time 30 min): 0.58; S-F signal of the solution ([2]; standing time 58 min): 0.35; S-F signal of the solution ([2]; standing time 2 h): 0.11; S-F signal of the solution ([2]; standing time 2 h 46 min): 0.05; S-F signal in 19F NMR spectrum decreased by ([3]; placed in the dryer (22° C.)): by 4%; S-F signal in 19F NMR spectrum decreased by ([3]; placed in the refrigerator (4° C.)): decreased by 1%; S-F signal in 19F NMR spectrum decreased by ([3]; placed on the experimental table (22° C.)): by 25%
